Results on 15 substances are retold here after patent US20040186273A1 (V.I. Technologies, Inc., priority 2000, published 2004).

For test [1], the target named is prion from scrapie infected hamster brain (PrPsc) (Mesocricetus auratus, UniProt P04273).
Test [2] has as its target PrPc from normal brain homogenate (Mesocricetus auratus, UniProt P04273).
For test [3], the target named is prion from infected hamster brain spiked into plasma (Mesocricetus auratus, UniProt P04273).
prion from infected hamster brain spiked into plasma, sequence (P04273 23-231 limits assumed): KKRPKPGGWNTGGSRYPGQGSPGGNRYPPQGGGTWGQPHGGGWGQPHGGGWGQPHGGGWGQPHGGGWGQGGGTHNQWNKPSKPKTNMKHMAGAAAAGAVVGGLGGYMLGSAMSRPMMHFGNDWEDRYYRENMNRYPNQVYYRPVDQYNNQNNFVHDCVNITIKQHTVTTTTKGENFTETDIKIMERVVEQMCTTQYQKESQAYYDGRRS

PrPc from normal brain homogenate, sequence (P04273 23-231 limits assumed): as above
prion from scrapie infected hamster brain (PrPsc), sequence (P04273 23-231 limits assumed): as above

Consider GFFFWW [Peptide 89], for which the “binding of prion to resin (prion signal in flow through)” value (“binding of prion to resin” for short) in test [1] is recorded as “bound all prion”.
As for HHHPQT [Peptide 55], in test [1], the “binding of prion to resin” value is “let prion flow through” and the “prion binding, dependence on copper” value is “appears to bind prion only in the absence of copper”.
In the case of IFFWIK [Peptide 112], in test [2], the “PrPc bound to resin (chemiluminescence signal, +3F4 vs -3F4)” value was “strongest binders”.
Consider IQIWIF [Peptide 110], for which the “binding of prion to resin” value in test [1] is listed as “bound to the column”; in test [3], “bound all prion”.
Take LLIWIP [Peptide 84]: the “PrPc bound to resin (chemiluminescence signal, +3F4 vs -3F4)” value in test [2] is listed as “not stable enough to resist the washing protocol”.
As to LRVIIS [Peptide 96], the “PrPc bound to resin (chemiluminescence signal, +3F4 vs -3F4)” value in test [2] is on record as “much larger signal than the controls”.
Regarding RWIISL [Peptide 113], in test [2], the “PrPc bound to resin (chemiluminescence signal, +3F4 vs -3F4)” value is on record as “strongest binders”.
As for RYHVYF [Peptide 71], in test [1], the “binding of prion to resin” value is recorded as “bound all prion”.
Take VFEYIK [Peptide 115]: the “PrPc bound to resin (chemiluminescence signal, +3F4 vs -3F4)” value in test [2] is on record as “strongest binders”.
Still for that read-out and setting: under WLVWIA [Peptide 116] stands “strongest binders”; under WLYWIP [Peptide 85], “not stable enough to resist the washing protocol”.
Turning to YVFNWY [Peptide 87], in test [1], the “binding of prion to resin” value is given as “bound all prion”.
Consider “acetyl (dF)LLHPI [Peptide 75, reference compound]”, for which the “binding of prion to resin” value in test [3] is reported as “did not bind prion strongly enough to retain all detectable protein”.
On to acetyl (dF)LLHPI [Peptide 76], for which, in test [1], the “binding of prion to resin” value is recorded as “failed to bind all prion”.
In the case of “acetylated (dR)YHVYF [Peptide 83, reference compound]”, the “binding of prion to resin” value in test [3] is reported as “bound all prion”.
